{
  "source": "patent US20060257481A1",
  "about": "“Sustained release formulation and dosing schedule of leukotriene synthesis inhibitor for human therapy” (deCODE Genetics ehf., priority 2005, published 2006)",
  "key": {"CRP [1]": {"test_system": "CRP", "experiment": "Study DG-031-201 cross-over trial: Hs-CRP in serum", "format": "in vivo, human", "settings": "for CRP: Study 201, 2-6 wks", "description": "(§1) Patients who met the study eligebility criteria were enrolled and randomized into 3 different dose-level groups: (1) 64 patients on 250 mg/day therapy with DG-031 (250 mg q.d.), vs placebo; (2) 64 patients on 500 mg/day therapy with DG-031 (250 mg b.i.d.) vs placebo; and (3) 63 patients on 750 mg/day therapy with DG-031 (250 mg t.i.d.) vs placebo. […] All patients received 3 tablets per day. Treatment periods, 4 weeks in duration each, were separated by a 2-week washout period. The placebo tablets were identical in shape, color, form and taste to the active tablets except that they contained no active drug ingredients. Treatment with DG-031 or placebo was in addition to the subject's standard care, including all medications and treatment plan as prescribed by the subject's cardiologist prior to enrolment. A total of 191 subjects were enrolled, with 172 completing all 8 visits or 8 patients short of the target of 180 patients.\nThe primary objective was to determine whether the FLAP inhibitor has a statistically significant effect, compared to placebo, on one or more biomarkers of MI risk, including: (1) ionomycin-induced LTB4 and MPO release by neutrophils ex vivo; (2) MPO, CRP, N-tyrosine, Lp-PLA2 or amyloid A in serum, or (3) LTE4 in urine. The secondary objective was to determine whether the effect of DG-031 was dose-dependent. The tertiary objective was to assess other biomarkers (See Results). Evaluation of safety and tolerability of the drug was also a primary endpoint.\nAll data were analyzed according to a pre-established statistical analysis plan (SAP) and by intention-to-treat (ITT). Each arm of the study, as well as pooled sets (combining dose levels), was considered for the primary analysis. Each such set is an AB/BA cross-over design and in the primary analysis of efficacy, the levels of biomarkers of MI risk at the end of the treatment periods (visits 4 and 7) were used as primary response variables. The difference between DG-031 and placebo treatment was the primary outcome, assessed separately for each of the biomarkers. Treatment effect was tested using a two-sample t-test on the period differences for suitably transformed response variables, under an assumption of normality of the transformed data. We report treatment effect as one half of the observed mean differences in the two-sample t-test, with a 95% CI. No pre-tests for carry-over effect were performed as a part of the primary analysis. Tests for carry-over were done and are reported separately from results of primary analysis. All hypotheses were tested at a two-sided nominal significance level of 0.05 and p-values based on t-tests are reported. In addition, for the primary efficacy endpoints where the effects of the two highest doses on 10 primary variables were studied, a randomization test was performed which corrects for multiple testing and ensures that the key results are not affected by distributional concerns. In particular, 1 million permutations of the patients into the different study tracks were performed, generating a reference distribution for the maximum of the 10 t-statistics of the biomarkers under the null hypothesis of no drug effect. By comparing the observed t-statistic of each of the 10 biomarkers to this reference distribution, empirical p-values were computed. […]"}, "CRP [2]": {"test_system": "CRP", "experiment": "Study DG-031-203 open label dose ranging: serum CRP", "format": "in vivo, human", "description": "The study also collected information on the dose-related effect of DG-031 on capacity for LTB4 production (ex vivo), plasma MPO, and serum-CRP. […] The pattern observed supported a concentration dependent pharmacologic effect of DG-031 on capacity for LTB4 production measured ex vivo. The effects on LTB4 production amounted to a 30% (p=0.016) and 25% (p=0.094) reduction with the 375 mg BID and 250 mg TID doses, respectively."}, "[3]": {"test_system": "MPO release by ionomycin-activated neutrophils ex vivo", "experiment": "Study DG-031-201: MPO in whole blood ex vivo after ionomycin activation", "parameters": "species or system human", "settings": "p=0.02", "description": "as §1, with “patients. […]” for “patients.”\n(§2) All data were analyzed according to a pre-established statistical analysis plan (SAP) and by intention-to-treat (ITT). […] The difference between DG-031 and placebo treatment was the primary outcome, assessed separately for each of the biomarkers. […]"}, "clinical": {"experiment": "clinical", "settings": "human, in vivo", "method": "Measurements of plasma DG-031 can be carried out by methods that are standard in the art. […] The DG-031 is then measured by liquid chromatography and/or mass spectrometry and the measured concentration is compared to a standard curve.\nAfter completion of the double-blind study reported herein an open-label randomized study was conducted in an independent cohort but with same eligibility criteria and measuring several of the same biomarkers. […] Each patient was on drug for 8 days; there was no placebo group. The primary objective of this study was to determine pharmacokinetic parameters of DG-031 in three different doses, as well as to assess the pharmacokinetic/pharmacodynamic relationship between DG-031, LTB4 and MPO.\nThe additional phase II study was conducted to compare a 750 mg total daily dose administered in a BID or TID dosing regimen."}, "Amyloid A": {"test_system": "Amyloid A", "experiment": "Study DG-031-201 cross-over trial: Amyloid A in serum", "format": "in vivo, human", "settings": "week 6, p=0.05", "description": "as §1, with “patients. […]” for “patients.”\nas §2"}, "MCP-1": {"test_system": "MCP-1", "experiment": "Study DG-031-201: MCP-1", "format": "in vivo, human", "settings": "difference visit 2 to visit 5; 500 and 750 mg/day vs placebo cohort", "description": "as §1\nas §2, with “(ITT). Each arm of the study, as well as pooled sets (combining dose levels), was considered for the primary analysis.” for “(ITT).”"}},
  "data": [
    {"smiles": "O=C(O)[C@@H](c1ccc(OCc2ccc3ccccc3n2)cc1)C1CCCC1", "note": "[DG-031, (R)-(+)-alpha-cyclopentyl-4-(2-quinolinylmethoxy)-Benzeneacetic acid]", "values": [
      {"measurement": "Reduction in CRP", "setting": "CRP [1]; 250 mg BID and TID, end of wash-out period (week 6), p=0.02", "value": 25, "unit": "%"},
      {"measurement": "CRP", "setting": "CRP [1]; 250 mg BID, p = 0.016", "value": "−24", "unit": "%"},
      {"measurement": "CRP", "setting": "CRP [1]; 250 mg QD, NS", "value": "−6", "unit": "%"},
      {"measurement": "Persistence of CRP reduction after week 6", "setting": "CRP [1]; after end of wash-out period", "value": 4, "unit": "weeks"},
      {"measurement": "Reduction of CRP", "setting": "CRP [1]; higher two dose groups (250 mg BID and 250 mg TID), at 2 weeks, p=0.07, not significant", "value": 16, "unit": "%"},
      {"measurement": "Reduction in CRP levels, high CRP group", "setting": "CRP [2]; 250 mg TID, CRP above median (1.4 mg/L) at entry, P=0.014", "value": 48, "unit": "%"},
      {"measurement": "CRP", "setting": "CRP [2]; 250 mg TID, St. 203, 1 wk, p = 0.07", "value": "37% (St. 203)"},
      {"measurement": "Reduction of serum CRP", "setting": "CRP [2]; 250 mg TID, after one week of therapy, all subjects, follow-up study 203, [9%,57%]", "value": 38, "unit": "%"},
      {"measurement": "CRP", "setting": "CRP [2]; 375 mg BID, Study 203", "value": "No effect"},
      {"measurement": "Change in CRP", "setting": "CRP [2]; 375 mg BID, all subjects, one week, p=0.94", "value": "−1", "unit": "%"},
      {"measurement": "Reduction of CRP, high CRP group", "setting": "CRP [2]; 375 mg BID, p=0.16, not significant", "value": 31, "unit": "%"},
      {"measurement": "CRP", "setting": "CRP [2]; 375 mg QD, Study 203, 1 wk, p = 0.021", "value": "−28", "unit": "%"},
      {"measurement": "Maximum reduction in MPO production", "setting": "[3]; 750 mg/day, [2%,21%]", "value": 12, "unit": "%"},
      {"measurement": "Inhibition of MPO release", "setting": "[3]; combined dose groups of 500 mg and 750 mg TDD", "value": "about 12%"},
      {"measurement": "half-life", "setting": "clinical; Dominant half-life, humans", "value": "2.5 to 3", "unit": "h"},
      {"measurement": "half-life", "setting": "clinical; Slower half-life, fraction of the dose with slower elimination", "value": "10 to 15", "unit": "h"},
      {"measurement": "Reduction of SAA", "setting": "Amyloid A", "value": 15, "unit": "%"},
      {"measurement": "Carry-over effect, MCP-1", "setting": "MCP-1", "value": 0.07}
    ]}
  ]
}
